Laboratory results taken from patent US5126506A, “2',3'-Dideoxy-2'-fluoronucleosides” (Bristol-Myers Company, priority 1990, dated 1992).

How the values were obtained:
HIV [1] = test: Inhibition of cytopathic effect (CPE) in HTLV-1 transformed MT-2 cells infected with HIV virus; type: cell-based; conditions: MT2, 168 h, anti-HIV in vitro, inhibition of CPE measured seven days after infection, read-out: ID50 (50% inhib. conc.)
Protocol: The assays were done in HTLV-1 transformed MT-2 cells infected with HIV virus. Inhibition of cytopathic effect CPE) was measured seven days after infection in comparison with control infected cells (Elaine Kinney-Thomas,(Bioch. Pharm., vol.36,pp 311-316, 1987).

HIV [2] = conditions: cited from earlier work; for anti-HIV activity: statement in words
[3] = compared with ddA; cited from earlier work

Row | Structure (SMILES) | IC50 (HIV [1]) [µM] | also measured
1 | Nc1ccn([C@@H]2O[C@H](CO)C[C@@H]2F)c(=O)n1 [Compound 5, 2',3'-Dideoxy-2'-fluoroarabino-cytidine] | 4 | –
2 | Cc1cn([C@@H]2O[C@H](CO)C[C@@H]2F)c(=O)[nH]c1=O [Compound 7, 2', 3'-Dideoxy-2'-fluoroarabino-thymidine] | > 100 | –
3 | Cc1cn([C@@H]2O[C@H](CO)C=C2F)c(=O)[nH]c1=O [Compound 11, 2',3'-Dideoxy-2'3'-didehydro-2'-fluoro-thymidine] | 10 to 100 | –
4 | Nc1ccn([C@@H]2O[C@H](CO)C=C2F)c(=O)n1 [Compound 16, 2',3'-Dideoxy-2',3'-dehydro-2'-fluoro-cytidine] | 15 to 48 | –
5 | Cc1cn([C@@H]2O[C@H](CO)[C@@H](N=[N+]=[N-])[C@@H]2F)c(=O)[nH]c1=O [Compound 17, 2',3'-Dideoxy-2'-fluoroarabino-3'-azido-thymidine] | > 100 | –
6 | Nc1ncnc2c1ncn2[C@@H]1O[C@H](CO)C[C@H]1F [Compound B, 6-amino-(β'D-2',3'-dideoxy-2'-fluororibofuranosyl)-9-H-purine] | – | protection against HIV relative to that seen with ddA (HIV [2]; % of protection seen with ddA): 13%; anti-HIV activity (HIV [2]): active anti-HIV agents; toxicity relative to ddA [3]: more toxic than ddA
7 | Nc1ncnc2c1ncn2[C@@H]1O[C@H](CO)C[C@@H]1F [Compound C, 6-amino-9-(β-D-2',3'-dideoxy-2'-fluoroarabinofuranosyl)-H-purine] | – | activity and potency against HIV relative to AZT or ddA (HIV [2]; compared with AZT or ddA): about as active and potent as AZT or ddA; anti-HIV activity (HIV [2]): active anti-HIV agents
